In ChEMBL document CHEMBL6127112, “Discovery of Novel Nonpeptidic Proteasome Inhibitors Using Covalent Virtual Screening and Biological Evaluation” (ACS Med Chem Lett, 2024):
Active and inactive are the calls of the source. The calls are words filed in the database; no cut-off is given here.

Tests used:
[1] = molecular target: T1, 20S proteasome (Homo sapiens) (UniProt P49721+P20618+P28074+P28062+P28065+P28072+P25786+P25787+P25788+P25789+P28066+P60900+O14818+Q8TAA3+P40306+A5LHX3+P49720+P28070+Q99436); experiment: (§1) Inhibition of human erythrocyte-derived 20S constitutive proteasome protein using Suc-LLVY-AMC as substrate preincubated for 15 mins followed by substrate addition and measured after 30 mins by multimode plate reader analysis; conditions: time 45.0 min
[2] = molecular target: T1, 20S proteasome (Homo sapiens); experiment: Inhibition of human erythrocyte-derived 20S constitutive proteasome protein at 100 uM using Suc-LLVY-AMC as substrate preincubated for 15 mins followed by substrate addition and measured after 30 mins by multimode plate reader analysis relative to control; conditions: time 45.0 min
Caspase-2 = molecular target: T2, Caspase-2 (Homo sapiens, UniProt P42575); experiment: Inhibition of Caspase-2 (unknown origin) by fluorometric assay
T2 sequence (P42575 whole entry): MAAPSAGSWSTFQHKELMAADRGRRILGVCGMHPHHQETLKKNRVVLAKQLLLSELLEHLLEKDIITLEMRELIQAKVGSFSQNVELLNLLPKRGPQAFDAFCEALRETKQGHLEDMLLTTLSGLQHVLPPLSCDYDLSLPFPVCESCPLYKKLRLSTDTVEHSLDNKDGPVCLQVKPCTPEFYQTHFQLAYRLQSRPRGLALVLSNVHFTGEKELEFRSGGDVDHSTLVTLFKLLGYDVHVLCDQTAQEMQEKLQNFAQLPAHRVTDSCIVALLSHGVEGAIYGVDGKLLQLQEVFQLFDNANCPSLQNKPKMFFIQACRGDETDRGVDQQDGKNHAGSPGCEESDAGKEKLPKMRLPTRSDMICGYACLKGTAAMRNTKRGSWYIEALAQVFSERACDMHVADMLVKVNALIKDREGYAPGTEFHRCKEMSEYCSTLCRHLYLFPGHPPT

[3] = Cytotoxicity against HEK293T cells assessed as reduction in cell viability incubated for 72 hrs by CellTiter 96 non-radioactive cell proliferation assay; type: toxicity, cell-based, HEK-293T; conditions: human
20S proteasome = experiment: as §1
NCI-H929 = experiment: Antiproliferative activity against human NCI-H929 cells assessed as reduction in cell viability incubated for 72 hrs by CellTiter 96 non-radioactive cell proliferation assay; type: functional, cell-based
Cathepsin B = Cathepsin B (Homo sapiens, UniProt P07858); experiment: Inhibition of human Cathepsin B using Ac-RR-AFC as substrate preincubated for 10 to 15 mins followed by substrate addition and measured for 30 to 60 mins by fluorescence based assay
[4] = molecular target: Angiotensin-converting enzyme 2 (Homo sapiens, UniProt Q9BYF1); experiment: Inhibition of human His-tagged ACE2 (18 to 740 residues) using ACE2 fluorogenic substrate incubated for 60 mins by fluorescence based assay
Chain of Angiotensin-converting enzyme 2 (Q9BYF1 whole entry, the tested form may be a part): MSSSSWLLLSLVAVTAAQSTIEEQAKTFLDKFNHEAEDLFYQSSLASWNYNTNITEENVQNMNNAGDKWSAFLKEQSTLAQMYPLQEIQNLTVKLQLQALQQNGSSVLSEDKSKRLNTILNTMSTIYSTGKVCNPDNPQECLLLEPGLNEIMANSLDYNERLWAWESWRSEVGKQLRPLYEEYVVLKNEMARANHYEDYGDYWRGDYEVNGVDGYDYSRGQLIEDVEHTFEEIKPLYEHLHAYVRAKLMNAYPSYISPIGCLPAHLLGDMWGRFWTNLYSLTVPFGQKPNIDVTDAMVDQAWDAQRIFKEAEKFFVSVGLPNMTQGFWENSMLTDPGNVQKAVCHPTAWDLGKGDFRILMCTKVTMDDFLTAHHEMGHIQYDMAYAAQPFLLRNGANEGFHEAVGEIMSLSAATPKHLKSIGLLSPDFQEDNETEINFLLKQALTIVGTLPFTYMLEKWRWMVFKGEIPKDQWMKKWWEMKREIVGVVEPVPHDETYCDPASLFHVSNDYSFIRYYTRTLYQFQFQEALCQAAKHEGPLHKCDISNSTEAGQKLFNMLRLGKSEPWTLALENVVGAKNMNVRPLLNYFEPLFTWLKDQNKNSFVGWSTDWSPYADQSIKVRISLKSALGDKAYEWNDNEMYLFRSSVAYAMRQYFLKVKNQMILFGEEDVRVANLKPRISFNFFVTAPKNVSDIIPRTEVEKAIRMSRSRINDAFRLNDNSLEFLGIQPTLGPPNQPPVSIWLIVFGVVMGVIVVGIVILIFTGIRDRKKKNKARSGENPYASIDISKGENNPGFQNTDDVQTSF

Procathepsin L = Procathepsin L (Homo sapiens, UniProt P07711); experiment: Inhibition of Cathepsin L (unknown origin) using AFC based peptide as substrate by fluorometric assay
Chain of Procathepsin L (P07711 whole entry): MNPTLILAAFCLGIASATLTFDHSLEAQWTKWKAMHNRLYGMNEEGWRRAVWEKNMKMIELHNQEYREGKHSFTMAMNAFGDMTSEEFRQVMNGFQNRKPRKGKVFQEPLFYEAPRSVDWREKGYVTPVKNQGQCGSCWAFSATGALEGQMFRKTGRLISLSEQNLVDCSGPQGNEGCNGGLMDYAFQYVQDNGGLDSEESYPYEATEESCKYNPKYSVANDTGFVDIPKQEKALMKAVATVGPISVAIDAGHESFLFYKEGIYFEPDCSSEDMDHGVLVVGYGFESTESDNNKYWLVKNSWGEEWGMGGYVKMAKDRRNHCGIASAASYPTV

[5] = molecular target: T1, 20S proteasome (Homo sapiens); experiment: Inhibition of human 20S immunoproteasome protein at 100 uM using Suc-LLVY-AMC as substrate preincubated for 15 mins followed by substrate addition and measured after 30 mins by multimode plate reader analysis relative to control; type: protein-complex assay; conditions: time 45.0 min

For `O=C(Nc1ccc2c(c1)OCCO2)C(=O)c1cn(Cc2ccc(Cl)cc2)c2ccccc12`, the inhibition [1] was “inactive”.
Molecule `O=C(NCc1ccccc1)C(=O)c1cn(CC(=O)N2CCOCC2)c2ccccc12` has an inhibition [2] of 26%.
In the case of `CCN(CC)C(=O)Cn1cc(C(=O)C(=O)Nc2ccc3c(c2)OCCO3)c2ccccc21`, the IC50 (Caspase-2) is reported as > 100 µM, the CC50 at 72 h [3] is reported as > 200 µM and the IC50 (20S proteasome) is reported as 12.4 µM. For the same molecule, the Activity (NCI-H929) was “Dose-Dependent Effect”, the IC50 (Cathepsin B) was > 100 µM and the IC50 [4] was > 100 µM. The IC50 (Procathepsin L) was > 100 µM.
In the case of `Cc1ccc(NC(=O)C(=O)c2cn(CC(=O)N3CCOCC3)c3ccccc23)c(C)c1`, the inhibition [1] is reported as “inactive”.
In the case of `COc1ccc(NC(=O)C(=O)c2cn(CC(=O)N3CCCCC3)c3ccccc23)cc1OC`, the IC50 (Caspase-2) is reported as > 100 µM, the CC50 at 72 h [3] is reported as > 200 µM and the IC50 (20S proteasome) is reported as 18.5 µM. For the same molecule, the Activity (NCI-H929) was “Dose-Dependent Effect”, the IC50 (Cathepsin B) was > 100 µM and the IC50 [4] was > 100 µM. For the same molecule, the IC50 (Procathepsin L) was > 100 µM.
Molecule `O=C(Nc1ccc2c(c1)OCCO2)C(=O)c1cn(CC(=O)N2CCOCC2)c2ccccc12` has an IC50 (20S proteasome) of 40.8 µM.
In the case of `CC(=O)Nc1ccc(NC(=O)C(=O)c2cn(CC(=O)N3CCOCC3)c3ccccc23)cc1`, the inhibition [1] is reported as “inactive”.
Molecule `CC(=O)c1cccc(NC(=O)C(=O)c2cn(CC(=O)N3CCOCC3)c3ccccc23)c1` has an IC50 (20S proteasome) of 31.3 µM.
For `COc1ccc(NC(=O)C(=O)c2cn(CC(=O)N3CCOCC3)c3ccccc23)cc1OC`, the inhibition [5] was 50%, the inhibition [1] was “Dose-Dependent Effect” and the IC50 (20S proteasome) was 107 µM. For the same molecule, the inhibition [2] was 50%.
In the case of `CC[C@@H](C)NC(=O)C(=O)c1cn(CC(=O)N2CCOCC2)c2ccccc12`, the IC50 (20S proteasome) is reported as 69.2 µM.
For `COc1cc(NC(=O)C(=O)c2ccn(Cc3ccccc3)c2)cc(OC)c1`, the inhibition [1] was “inactive”.
For `O=C(Nc1ccccc1-c1ccccc1)C(=O)c1cn(CC(=O)N2CCOCC2)c2ccccc12`, the inhibition [1] was “inactive”.
Work on `O=C(Nc1ccccc1)C(=O)c1cn(CC(=O)N2CCOCC2)c2ccccc12` yielded an inhibition [2] of 55%.
